The results in this text go back to patent publication US8057829B2, “Methods for repelling insects using sesquiterpene hydrocarbons and their derivatives” (Sterling International Inc., priority 2008, dated 2011).

The subject of assay [1] is female antennae of sand fly Phlebotomus papatasi and mosquitoes Aedes aegypti, Anopheles gambiae, Anopheles stephensi. The experiment in a line: GC-EAD responses of sand fly and three mosquitoes to synthetic mixtures. The note with it: about 100 ng of each compound, on one or more of the sand fly or the mosquitoes, FIGS. 9 and 10. An outline of the steps:
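Female antennae recorded by GC-EAD (split with FID) against synthetic mixtures with about 100 ng of each compound, 1-octen-3-ol as positive control; polar Innowax column, 50° C 2 min then 10° C/min to 240° C. Effluent in humidified air at 0.5 liter/min over severed-head preparation with Ringer-filled electrodes.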

Assay [2] has as its system Ae. aegypti and An. stephensi. Nature of the assay: K&D module bioassay, statements pooled for both mosquito species. In kind it is in vivo, Aedes aegypti; Anopheles stephensi. The note with it: DEET at 10 μg/cm^2, oxide and ketone at similar or lower dosages as DEET, oils at about 10 mg/d release. As to the method: (§1) The bioassays were conducted with a six-cell in vitro K&D module system, as disclosed in Klun and Debboun, J. Med. Entomol. 37:177-181 (2000), loaded with an “artificial blood” (CPDA+ATP) solution.
Clove essential oil, patchouli oil, and EAD-active potential repellents, β-caryophyllene, isocaryophyllene, (+)-longifolene, and their 1:1:1 mixture, plus α-guaiene, caryophyllene oxide, and a β-caryophyllene ketone, were tested using the six-cell in vitro K&D module system (Klun and Debboun, J. Med. Entomol. 37:177-181 (2000)) loaded with an “artificial blood” (CPDA+ATP) solution on both Ae. aegypti and An. stephensi in a dose-response fashion. The K&D in vitro assay system has three components: (1) a Plexiglas™ 29.7 cm.×7.1 cm K&D module composed of six adjacent cells, each designed to hold mosquitoes and each having a rectangular 3×4 cm floor hole that is opened and closed by a sliding door; (2) a Plexiglas™ six-well 29.7 cm×7.1 cm water water-bath warmed (38° C.) reservoir with six 3×4 cm wells designed to match the sliding-door openings of the K&D module base and to contain 6 mL warmed “artificial blood” wells covered with a collagen membrane; and (3) a 29.7 cm×7.1 cm'0.4 cm Teflon® separator having six rectangular openings like the K&D module. The K&D module was connected to a constant temperature water circulator at 38° C. The cells were covered with an Edicol collagen membrane strip. Nylon organdy strips with ink cell patterns were numbered and randomly treated with five dilutions of the tested chemical in ethanol (ethanol alone as blank control), plus DEET (ca. 10 μg/cm^2) as a positive control. This treated nylon organdy strip was placed on top of the collagen membrane. The upper section of the K & D module with the six cells each containing 5 mosquitoes (5-10 d old, starved for 24 hr before testing) was placed on top of the nylon strip. […] The experiments were allowed to run for 3 minutes, and the number of mosquitoes feeding (biting) in each cell was recorded. […]

Assay [3] has as its system Aedes aegypti. Nature of the assay: K&D module behavioral bioassay (topical repellency, biting). It is filed as in vivo. The procedure: as §1
(§2) Clove essential oil, patchouli oil, and EAD-active potential repellents, β-caryophyllene, isocaryophyllene, (+)-longifolene, and their 1:1:1 mixture, plus α-guaiene, caryophyllene oxide, and a β-caryophyllene ketone, were tested using the six-cell in vitro K&D module system (Klun and Debboun, J. Med. Entomol. 37:177-181 (2000)) loaded with an “artificial blood” (CPDA+ATP) solution on both Ae. aegypti and An. stephensi in a dose-response fashion. The K&D in vitro assay system has three components: (1) a Plexiglas™ 29.7 cm.×7.1 cm K&D module composed of six adjacent cells, each designed to hold mosquitoes and each having a rectangular 3×4 cm floor hole that is opened and closed by a sliding door; (2) a Plexiglas™ six-well 29.7 cm×7.1 cm water water-bath warmed (38° C.) reservoir with six 3×4 cm wells designed to match the sliding-door openings of the K&D module base and to contain 6 mL warmed “artificial blood” wells covered with a collagen membrane; and (3) a 29.7 cm×7.1 cm'0.4 cm Teflon® separator having six rectangular openings like the K&D module. The K&D module was connected to a constant temperature water circulator at 38° C. The cells were covered with an Edicol collagen membrane strip. Nylon organdy strips with ink cell patterns were numbered and randomly treated with […] of the tested chemical in ethanol (ethanol alone as blank control), plus DEET (ca. 10 μg/cm^2) as a positive control. This treated nylon organdy strip was placed on top of the collagen membrane. The upper section of the K & D module with the six cells each containing 5 mosquitoes (5-10 d old, starved for 24 hr before testing) was placed on top of the nylon strip. The doors to the cells were slid open so the mosquitoes could be free to feed on the “artificial blood” via the collagen membrane if they were hungry. The experiments were allowed to run for 3 minutes, and the number of mosquitoes feeding (biting) in each cell was recorded. After each experiment, the nylon and collagen strips were removed. The CPDA+ATP solution was removed and allowed to dry prior to starting the next experiment. The experiments on each chemical and each mosquito species were run three times before the bottom section with circulated water was cleaned prior to use again.

Assay [4] relates to Anopheles stephensi. The assay is described as above. It is filed as in vivo. As to the method: as §1, §2
Assay [5] deals with Aedes aegypti. The experiment in a line: Y-tube olfactometer behavioral bioassay (spatial repellency). The note with it: for Number of mosquitoes in each arm: Blank / Number of mosquitoes in each arm: Bottom / Number of mosquitoes in each arm: Repellent: Aedes aegypti females, release rate per chemical (1-60 mg/day), 10 min; for Number of mosquitoes in each arm: Repellent: two replicates pooled; for SAI (Spatial Activity Index): Aedes aegypti, (Nc − Nt)/(Nc + Nt), −1 to 1, zero indicating no response. In kind it is in vivo. The procedure:
(§3) Aegypti and An. stephensi, and one species of sand fly, P. papatasi. Both the mosquitoes and the sand flies used in the study were from colonies maintained at the Walter Reed Army Institute of Research, Department of Entomology, Silver Spring, Md. This Y-tube bioassay system, equipped with CO2-enriched air (ca. 1 l/min) as an attractant, was made from three clear acrylic tubes (4″ diameter; 12″ length) with symmetrical 120° angles among the three tube arms; and a screen butterfly valve on the top part of the bottom releasing tube. These spatial repellency tests were carried out during 8:00 am-12:00 pm (photophase) time period for Ae. aegypti and 1:00-5:00 pm (shifted scotophase) time period for the species of night-flying mosquitoes and sand fly in a temperature and humidity controlled testing room (23-25° C. and 20-40% RH). Female mosquitoes or sand flies were stored at ˜25-26° C., 50-89% RH, 12:12 hr. (L/D), fed with 10% sucrose solution before testing. The candidate chemical (individual or mixture) dispenser and a blank control were placed in the upper left or right arm of the Y-tube before releasing 25-40, 6 to 10 day-old female mosquitoes (or 3 to 10 day-old sand flies) into the bottom tube via a small hole. After a 30-60 sec acclimation period, the butterfly screen valve (door) on the top of the bottom tube was opened. After 10 min., the valve was closed and the numbers of mosquitoes or sand flies in each arm (including the bottom tube) were counted. In order to minimize the position effect, the same experiment was repeated once with the treatment and blank control arms shifted using a new (clean) Y-tube olfactometer and a new batch of mosquitoes/sand flies. Data from these two replicates were pooled for χ2 goodness of fit test (df=1) between the treatment and blank control.

The subject of another assay is Phlebotomus papatasi. The assay is described as above. The note with it: for SAI (Spatial Activity Index): Phlebotomus papatasi; for Number of mosquitoes in each arm: Repellent: Phlebotomus papatasi (sand fly) females, release rate per chemical (1-35 mg/day); for Number of mosquitoes in each arm: Repellent / Number of mosquitoes in each arm: Blank / Number of mosquitoes in each arm: Bottom: 10 min; for Number of mosquitoes in each arm: Blank / Number of mosquitoes in each arm: Bottom: Phlebotomus papatasi females, release rate per chemical. It is filed as in vivo. The procedure:
as §3

The subject of assay [6] is Anopheles stephensi. Described as above. In kind it is in vivo. The note with it: for Number of mosquitoes in each arm: Repellent / Number of mosquitoes in each arm: Blank / Number of mosquitoes in each arm: Bottom: Anopheles stephensi females, 10 min; for Number of mosquitoes in each arm: Repellent: release rate per chemical (1-60 mg/day; β-Caryophyllene 10 mg/day); for Number of mosquitoes in each arm: Blank / Number of mosquitoes in each arm: Bottom: release rate per chemical (β-Caryophyllene 10 mg/day); for SAI (Spatial Activity Index): Anopheles stephensi, β-Caryophyllene 10 mg/day. As to the method:
as §3

Assay [7] has as its system male false stable fly Muscina stabulans antenna and female mosquito Aedes (Ochlerotatus) increpitus Dyar antenna. The experiment in a line: GC-EAD responses of false stable fly and Aedes increpitus to a synthetic mixture. The note with it: about 100 ng of each compound, FIG. 5. As to the method: The GC-EAD responses of the male false stable fly Muscina stabulans antenna and the female mosquito Aedes (Ochlerotatus) increpitus Dyar antenna were tested on a synthetic mixture of linalool and two representative sesquiterpene hydrocarbons, β-caryophyllene and α-humulene, and one sesquiterpene oxide, β-caryophyllene oxide, with about 100 ng of each compound in the mixture.
The following procedures were employed to test the EAD response of an insect antenna to a repellent compound. The GC-EAD technique provides an efficient tool for screening behaviorally active repellents. Several synthetic mixtures of potential insect repellent candidates, mostly sesquiterpene hydrocarbons and derivatives, were analyzed in splitless mode using a Varian CP-3800 GC equipped with a polar column (Innowax; 1.0 μm film thickness, 30 m×0.53 mm ID; J & W Scientific), and a 1:1 effluent splitter that allowed simultaneous flame ionization detection (FID) and EAD of the separated volatile compounds. Helium was used as the carrier gas, and the injector temperature was 220° C. The column temperature was 50° C. for 2 min, rising to 240° C. at 10° C./min, then held for 10 min. The outlet for the EAD was held in a humidified air stream flowing at 0.5 liter/min. over an antennal preparation. A glass capillary indifferent electrode filled with Beadle-Ephrussi Ringer, and grounded via a silver wire, was inserted into the severed insect's head with the antennae. A similar recording electrode connected to a high-impedance DC amplifier with automatic baseline drift compensation was placed in contact with the distal end of one antenna (Zhang et al., Chemoecology, 10:69-80 (2000)). The antennal signals were stored and analyzed on a PC equipped with a serial IDAC interface box and the program EAD ver. 2.5 (Syntech, Hilversum, The Netherlands). The compound 1-octen-3-ol (known attractant for many flies and mosquitoes) was included in most of the synthetic mixtures, as a positive control. The results of the experiments are shown in FIGS. 1-10 and described above.

Setting [8] is: 10 μg/cm^2, DEET values are the positive control run with the chemical.

For `CCN(CC)C(=O)c1cccc(C)c1` [DEET, N,N-diethyl-m-toluamide, reference compound], the GC-EAD antennal activity entry in assay [1] is recorded as “does not appear to have elicited antennal activity”. Also, the “topical repellency / feeding deterrence, in words” value in assay [2] is given as “significantly inhibited/blocked the feeding (biting) activity”.

Turning to `C/C1=C\CCC(=O)[C@H]2CC(C)(C)[C@@H]2CC1` [β-Caryophyllene Ketone, β-caryophyllene ketone], the “% of biting (±SE) (N = 3)” value was 20 ± 0bc % with Aedes aegypti [3] (1 μg/cm^2, 3 minutes); 13 ± 7ab % in the assay on Aedes aegypti [3] (5 μg/cm^2); 7 ± 7ab % in the assay with Aedes aegypti [3] (setting [8]); 0 ± 0a % in the assay with Aedes aegypti [3] (50 μg/cm^2); 47 ± 7cd % with Anopheles stephensi [4] (1 μg/cm^2, 3 minutes); 33 ± 7bc % in the assay with Anopheles stephensi [4] (5 μg/cm^2). In addition, the figures for the “% of biting (±SE) (N = 3)” value with Anopheles stephensi [4] (setting [8]) and in the assay with Anopheles stephensi [4] (50 μg/cm^2) were 20 ± 12ab % and 0 ± 0a %, respectively. Besides, the “Number of mosquitoes in each arm: Blank” value in the assay with Aedes aegypti [5] came to 37; in the assay on Phlebotomus papatasi it was 29; in the assay with Anopheles stephensi [6], 18. Further, the “Number of mosquitoes in each arm: Bottom” value in the assay with Aedes aegypti [5] was 20; with Phlebotomus papatasi it was 23; in the assay with Anopheles stephensi [6], 32. The “Number of mosquitoes in each arm: Repellent” value with Aedes aegypti [5] came out at 28; in the assay on Phlebotomus papatasi, 20; in the assay with Anopheles stephensi [6], 10. The figures for the “SAI (Spatial Activity Index)” value with Aedes aegypti [5], in the assay with Phlebotomus papatasi and with Anopheles stephensi [6] were 0.14, 0.18 and 0.29, respectively. Besides, the “topical repellency / feeding deterrence, in words” value in assay [2] is on record as “even stronger topical repellency”.

For `C=C1CC[C@H]2O[C@]2(C)CC[C@@H]2[C@@H]1CC2(C)C` [β-Caryophyllene Oxide, β-Caryophyllene oxide], the GC-EAD antennal activity entry in assay [7] is “active on at least one of the insects tested”; in assay [1], “antennally active”. Besides, the “% of biting (±SE) (N = 3)” value in the assay on Aedes aegypti [3] (1 μg/cm^2, 3 minutes) is 27 ± 7b %; in the assay with Aedes aegypti [3] (5 μg/cm^2) it was 27 ± 7b %; in the assay on Aedes aegypti [3] (setting [8]), 0 ± 0a %; with Aedes aegypti [3] (50 μg/cm^2), 0 ± 0a %; in the assay with Anopheles stephensi [4] (1 μg/cm^2, 3 minutes), 27 ± 13abc %; with Anopheles stephensi [4] (5 μg/cm^2) it was 47 ± 7bc %. For the same compound, the “% of biting (±SE) (N = 3)” value with Anopheles stephensi [4] (setting [8]) stood at 20 ± 12ab %; with Anopheles stephensi [4] (50 μg/cm^2), 0 ± 0a %. The “Number of mosquitoes in each arm: Blank” value was 38 in the assay on Aedes aegypti [5], 83 in the assay with Phlebotomus papatasi and 24 with Anopheles stephensi [6]. The “Number of mosquitoes in each arm: Bottom” value turned out to be 26 in the assay on Aedes aegypti [5], 5 with Phlebotomus papatasi and 23 in the assay on Anopheles stephensi [6]. The “Number of mosquitoes in each arm: Repellent” value with Aedes aegypti [5] is 15; with Phlebotomus papatasi, 4; with Anopheles stephensi [6] it was 15. Also, the “SAI (Spatial Activity Index)” value in the assay with Aedes aegypti [5] is 0.43; in the assay with Phlebotomus papatasi it was 0.91; in the assay with Anopheles stephensi [6] it was 0.23. For the same compound, in assay [2], the “topical repellency / feeding deterrence, in words” value is on record as “even stronger topical repellency”.
